The subject of one assay is S. aureus ATCC 29213. In words: microbe, parasite or virus in culture. Format: cell-based. To be noted: Staphylococcus aureus, ATCC29213; Table 1; S. aureus ATCC 29213; broth microdilution, CLSI M100-ED34; read-out: MIC.
The subject of the next assay is A. baumannii 7979. In words: microbe, parasite or virus in culture. The assay is classed as cell-based. To be noted: Acinetobacter baumannii; Table 1; A. baumannii 7979; broth microdilution; read-out: MIC. The protocol:
(§1) Bacterial strains and growth conditions: All Gram-negative and Gram-positive bacterial strains (Supplementary Table S8) were cultured in Luria-Bertani (LB) or trypticase soy broth (TSB) agar plates, respectively, and incubated overnight at 37 °C unless specifically indicated. A single colony of the tested bacterial strains was inoculated into medium broth with shaking at 220 rpm for further experiments.
(§2) Minimal inhibitory concentrations: Antimicrobial susceptibility testing was performed by broth microdilution method for AMPs against Gram-positive and Gram-negative pathogens above mentioned, following the methods of document CLSI M100-ED34.[43] The MICs were defined as the lowest concentrations that inhibit visible growth of the tested bacteria. E. coli ATCC 25,922 and S. aureus ATCC 29,213 were served as quality controls.
A general note: Dilution methods test growth across graded concentrations, often in twofold steps.

Another assay has as its system A. baumannii AB11. Nature of the assay: microbe, parasite or virus in culture. Format: cell-based. To be noted: Acinetobacter baumannii; Table 1; A. baumannii AB11; broth microdilution; read-out: MIC. The protocol:
as §1, §2

The subject of the next assay is E. coli ATCC 25922. In words: microbe, parasite or virus in culture. The assay is classed as cell-based. As to conditions: Escherichia coli, ATCC25922; Table 1; E. coli ATCC 25922; broth microdilution; read-out: MIC. On the procedure:
as §1, §2

For a further assay, the system named is E. faecalis ES01. In words: microbe, parasite or virus in culture. The assay is classed as cell-based. To be noted: Enterococcus faecalis; Table 1; E. faecalis ES01; ermB, vanB; broth microdilution; read-out: MIC. The protocol: as §1, §2
In the next assay the test system is E. faecalis J2. In words: microbe, parasite or virus in culture. The assay is classed as cell-based. As to conditions: Enterococcus faecalis; Table 1; E. faecalis J2; ermB, optrA; broth microdilution; read-out: MIC. The protocol:
as §1, §2

For the next assay, the system named is E. faecalis JH2-2. Nature of the assay: microbe, parasite or virus in culture. As to conditions: Enterococcus faecalis, JH22; Table 1; E. faecalis JH2-2; broth microdilution; read-out: MIC. Format: cell-based. On the procedure: as §1, §2
For the next assay, the system named is E. faecalis SF23-1. In words: microbe, parasite or virus in culture. Format: cell-based. To be noted: Enterococcus faecalis, SF231; Table 1; E. faecalis SF23-1; ermB, tetL, cfr; broth microdilution; read-out: MIC. On the procedure:
as §1, §2

For the next assay, the system named is E. faecium HFY01. Nature of the assay: microbe, parasite or virus in culture. Format: cell-based. To be noted: Enterococcus faecium; Table 1; E. faecium HFY01; broth microdilution; read-out: MIC. On the procedure:
as §1, §2

The subject of a further assay is E. faecium MC38. Nature of the assay: microbe, parasite or virus in culture. The assay is classed as cell-based. As to conditions: Enterococcus faecium; Table 1; E. faecium MC38; ermB, optrA; broth microdilution; read-out: MIC. The protocol: as §1, §2
A further assay relates to E. faecium QF31. In words: microbe, parasite or virus in culture. Format: cell-based. To be noted: Enterococcus faecium; Table 1; E. faecium QF31; ermB, cfr; broth microdilution; read-out: MIC. The protocol: as §1, §2
The next assay deals with K. pneumoniae 9-1. Nature of the assay: microbe, parasite or virus in culture. Format: cell-based. As to conditions: Klebsiella pneumoniae, 91; Table 1; K. pneumoniae 9-1; broth microdilution; read-out: MIC. On the procedure: as §1, §2
A further assay has as its system P. aeruginosa PA14. In words: microbe, parasite or virus in culture. Format: cell-based. To be noted: Pseudomonas aeruginosa; Table 1; P. aeruginosa PA14; broth microdilution; read-out: MIC. On the procedure: as §1, §2
Another assay has as its system P. aeruginosa PAO1. In words: microbe, parasite or virus in culture. The assay is classed as cell-based. To be noted: Pseudomonas aeruginosa; Table 1; P. aeruginosa PAO1; broth microdilution; read-out: MIC. The protocol:
as §1, §2

For the next assay, the system named is S. agalactiae DL03. In words: microbe, parasite or virus in culture. The assay is classed as cell-based. As to conditions: Streptococcus agalactiae; Table 1; S. agalactiae DL03; ermB; broth microdilution; read-out: MIC. On the procedure:
as §1, §2

The next assay has as its system S. aureus M147-2. In words: microbe, parasite or virus in culture. Format: cell-based. To be noted: Staphylococcus aureus, M1472; Table 1; S. aureus M147-2; ermB, tetL, cfr; broth microdilution; read-out: MIC. The protocol:
as §1, §2

For the next assay, the system named is S. aureus M92-1. In words: microbe, parasite or virus in culture. The assay is classed as cell-based. To be noted: Staphylococcus aureus, M921; Table 1; S. aureus M92-1; ermB, tetL, optrA; broth microdilution; read-out: MIC. On the procedure:
as §1, §2

The next assay has as its system S. aureus YZSA-15. Nature of the assay: microbe, parasite or virus in culture. Format: cell-based. To be noted: Staphylococcus aureus, YZSA15; Table 1; S. aureus YZSA-15; ermC, vanB; broth microdilution; read-out: MIC. On the procedure: as §1, §2
For a further assay, the system named is S. aureus YZSA-21. Nature of the assay: microbe, parasite or virus in culture. Format: cell-based. As to conditions: Staphylococcus aureus, YZSA21; Table 1; S. aureus YZSA-21; ermC; broth microdilution; read-out: MIC. The protocol:
as §1, §2

In a further assay the test system is S. aureus YZSA-24. Nature of the assay: microbe, parasite or virus in culture. The assay is classed as cell-based. To be noted: Staphylococcus aureus, YZSA24; Table 1; S. aureus YZSA-24; ermC, mecA; broth microdilution; read-out: MIC. On the procedure:
as §1, §2

The subject of the next assay is S. pyogenes DL02. Nature of the assay: microbe, parasite or virus in culture. Format: cell-based. To be noted: Streptococcus pyogenes; Table 1; S. pyogenes DL02; ermB; broth microdilution; read-out: MIC. On the procedure: as §1, §2
A further assay relates to S. suis SH0918. In words: microbe, parasite or virus in culture. Format: cell-based. As to conditions: Streptococcus suis; Table 1; S. suis SH0918; ermB, tetO, optrA; broth microdilution; read-out: MIC. The protocol:
as §1, §2

The next assay relates to S. suis P1/7. In words: microbe, parasite or virus in culture. To be noted: Streptococcus suis, P1/7. On the procedure: as §1
Minimal inhibitory concentrations: Antimicrobial susceptibility testing was performed by broth microdilution method for AMPs against Gram-positive and Gram-negative pathogens above mentioned, following the methods of document CLSI M100-ED34.[43] The MICs were defined as the lowest concentrations that inhibit visible growth of the tested bacteria.

For the next assay, the system named is S. enteritis S1. Nature of the assay: organism not typed. Format: cell-based. To be noted: Table 1; S. enteritis S1; broth microdilution; read-out: MIC. On the procedure: as §1, §2

Values after ≈ are worked out from the molar mass of the structure shown.

In the case of `CC1(C)S[C@@H]2[C@H](NC(=O)[C@H](N)c3ccccc3)C(=O)N2[C@H]1C(=O)O` [AMP, Ampicillin], the MIC in the assay on S. aureus ATCC 29213 is 1 µg/mL (≈ 2.86 µM); with A. baumannii 7979, above 64 µg/mL; with A. baumannii AB11, below 0.06 µg/mL; with E. coli ATCC 25922 it was 2 µg/mL (≈ 5.72 µM); with E. faecalis ES01 it was 16 µg/mL (≈ 45.8 µM); in the assay with E. faecalis J2, 16 µg/mL (≈ 45.8 µM). In addition, the MIC with E. faecalis JH2-2 is 16 µg/mL (≈ 45.8 µM); with E. faecalis SF23-1, 16 µg/mL (≈ 45.8 µM); with E. faecium HFY01, 1 µg/mL (≈ 2.86 µM); in the assay on E. faecium MC38, 32 µg/mL (≈ 91.6 µM); with E. faecium QF31, 32 µg/mL (≈ 91.6 µM); in the assay with K. pneumoniae 9-1, above 64 µg/mL. In addition, the MIC in the assay on P. aeruginosa PA14 is above 64 µg/mL; in the assay with P. aeruginosa PAO1, above 64 µg/mL; with S. agalactiae DL03 it was 0.25 µg/mL (≈ 0.715 µM); in the assay with S. aureus M147-2 it was 16 µg/mL (≈ 45.8 µM); in the assay on S. aureus M92-1, 16 µg/mL (≈ 45.8 µM); in the assay with S. aureus YZSA-15, 2 µg/mL (≈ 5.72 µM). In addition, the MIC with S. aureus YZSA-21 was 1 µg/mL (≈ 2.86 µM); in the assay with S. aureus YZSA-24, above 64 µg/mL; in the assay with S. pyogenes DL02 it was 0.5 µg/mL (≈ 1.43 µM); in the assay on S. suis SH0918, 0.25 µg/mL (≈ 0.715 µM); against S. suis P1/7, 0.5 µg/mL (≈ 1.43 µM); with S. enteritis S1 it was 32 µg/mL (≈ 91.6 µM).
Consider `C[C@H]1[C@H](NC(=O)/C(=N\OC(C)(C)C(=O)O)c2csc(N)n2)C(=O)N1S(=O)(=O)O` [ATM, Aztreonam], for which the MIC in the assay with A. baumannii 7979 was above 64 µg/mL; with A. baumannii AB11, above 64 µg/mL; in the assay with E. coli ATCC 25922, 0.25 µg/mL (≈ 0.574 µM); with K. pneumoniae 9-1 it was above 64 µg/mL; in the assay with P. aeruginosa PA14, 4 µg/mL (≈ 9.19 µM); in the assay with P. aeruginosa PAO1 it was 2 µg/mL (≈ 4.59 µM). Besides, in the assay with S. enteritis S1, the MIC is 2 µg/mL (≈ 4.59 µM).
As for `O=C(O)c1cn(C2CC2)c2cc(N3CCNCC3)c(F)cc2c1=O` [CIP, ciprofloxacin], the MIC in the assay with E. faecalis ES01 was 2 µg/mL (≈ 6.04 µM); in the assay on E. faecalis J2, 8 µg/mL (≈ 24.1 µM); in the assay with E. faecalis JH2-2, 0.5 µg/mL (≈ 1.51 µM); in the assay on E. faecalis SF23-1 it was 16 µg/mL (≈ 48.3 µM); in the assay on E. faecium HFY01 it was 1 µg/mL (≈ 3.02 µM); with E. faecium MC38, 8 µg/mL (≈ 24.1 µM). Also, the MIC in the assay with E. faecium QF31 was found to be 2 µg/mL (≈ 6.04 µM); with S. agalactiae DL03 it was 16 µg/mL (≈ 48.3 µM); in the assay on S. aureus M147-2, 32 µg/mL (≈ 96.6 µM); in the assay on S. aureus M92-1, 16 µg/mL (≈ 48.3 µM); in the assay with S. aureus YZSA-15, 0.25 µg/mL (≈ 0.754 µM); in the assay with S. aureus YZSA-21, 0.5 µg/mL (≈ 1.51 µM). In addition, the MIC in the assay with S. aureus YZSA-24 is 4 µg/mL (≈ 12.1 µM); with S. pyogenes DL02, 1 µg/mL (≈ 3.02 µM); in the assay on S. suis SH0918, 16 µg/mL (≈ 48.3 µM).
As to `CC[C@H]1OC(=O)[C@H](C)[C@@H](O[C@H]2C[C@@](C)(OC)[C@@H](O)[C@H](C)O2)[C@H](C)[C@@H](O[C@@H]2O[C@H](C)C[C@H](N(C)C)[C@H]2O)[C@](C)(O)C[C@@H](C)C(=O)[C@H](C)[C@@H](O)[C@]1(C)O` [ERY, Erythromycin], the MIC with S. aureus ATCC 29213 was 1 µg/mL (≈ 1.36 µM); in the assay on E. faecalis ES01, above 64 µg/mL; with E. faecalis J2, above 64 µg/mL; in the assay with E. faecalis JH2-2, 0.25 µg/mL (≈ 0.341 µM); in the assay with E. faecalis SF23-1, above 64 µg/mL; in the assay with E. faecium HFY01, 2 µg/mL (≈ 2.73 µM). Besides, the MIC in the assay on E. faecium MC38, in the assay with E. faecium QF31, in the assay on S. agalactiae DL03, in the assay on S. aureus M147-2, in the assay with S. aureus M92-1 and with S. aureus YZSA-15 was above 64 µg/mL in each case. Besides, the MIC was above 64 µg/mL in the assay with S. aureus YZSA-21; above 63 µg/mL with S. aureus YZSA-24; above 64 µg/mL with S. pyogenes DL02; above 64 µg/mL in the assay on S. suis SH0918; 0.125 µg/mL (≈ 0.17 µM) against S. suis P1/7.

Source of the values: paper PMC12203862, “BroadAMP-GPT: AI-Driven generation of broad-spectrum antimicrobial peptides for combating multidrug-resistant ESKAPE pathogens” (Gut Microbes, 2025).
